Data set [1] concerns the target T1, Recombinant human farnesyl transferase (FTase) (Homo sapiens, UniProt P49356).
T1 construct: purchased Crelux (Martinsried, Germany)
Nature of the data set: FTase fluorescence assay (farnesylation of dansyl-GCVLS peptide). Particulars: recombinant human FTase 2.5 nM, Dansyl-GCVLS 85 nM, FPP 30 nM, 30° C., 50 minutes. Type of data set: biochemical.

In data set [2] the target is T2, geranylgeranyl transferase type-1 (GGTase) (Homo sapiens, UniProt P53609).
T2 construct: purchased Crelux (Martinsried, Germany)
The data set can be described thus: GGTase fluorescence assay (dansyl-GCVLL peptide, GGPP). It is filed as biochemical. Particulars: GGTase 25 nM, Dansyl-GCVLL 10 μM, GGPP 10 μM, 30° C., 120 minutes. An excerpt: (§1) T24/83 cell line was purchased from the European Collection of Authenticated Cell Cultures (Salisbury, UK). Recombinant human farnesyl transferase (FTase) and geranylgeranyl transferase type-1 (GGTase) were obtained from Crelux (Martinsried, Germany). Dansyl labelled GCVLS peptide was purchased from Bachem (Torrance, CA), and Dansyl labelled GCVLL peptide was purchased from Bio Synthesis (Lewisville, TX). Farnesyl Pyrophosphate (FPP) and Geranylgeranyl pyrophosphate (GGPP) were purchased from Cayman (Ann Arbor, MI).
Geranylgeranyl transferase (GGTase) is a closely related enzyme to farnesyl transferase (FTase). The two enzymes share a common regulatory chain but have distinct individual enzymatic domains. GGTase catalyses the addition of an alternative prenylated side chain to some of the same proteins that may also be farnesylated. Thus, selective inhibitory activity against FTase relative to GGTase is a critical characteristic for FTase inhibitors.
The IC50 value of the compounds disclosed herein as inhibitors of Ftase and/or GGTase, was determined by measuring the concentration (provided in nM) necessary to achieve inhibition of enzyme activity by 50% (IC50). […] Compounds having a low IC50 value against FTase, for example an IC50 (FTase)<100 nM, such as an IC50 (FTase)<10 nM, are preferred. Compounds having a low IC50 value against FTase and a high IC50 value against GGTase, for example an IC50 (FTase)<100 nM, such as an IC50 (FTase)<10 nM, and an IC50 (GGTase)>100 nM, are potent and selective inhibitors of FTase, and are particularly preferred.
The inhibition activities of the compounds disclosed herein against Ftase and GGTase were measured in the respective fluorescence assays as follows:
For the GGTase assay, GGTase (25 nM), Dansyl labelled GCVLL peptide (10 μM), GGPP (10 μM) and inhibitor were mixed in assay buffer (50 mM Tris, pH 7.5, 10 mM magnesium chloride, 10 μM zinc chloride, 0.08% CHAPS, 5 mM dithiothreitol) and incubated in a total volume of 20 μL at 30° C. for 120 minutes.
For both the FTase assay and GGTase assay, fluorescence intensity was detected (excitation at 340 nm and emission at 486 nm) using EnVision (PerkinElmer; Waltham, MA), IC50 determinations were performed using a sigmoidal dose-response model with Xlfit software (IDBS, Inc.; Boston, MA), and tipifarnib was used as a positive control. All the assay plates for each assay passed the QC criteria (S/B, Z factor).

The test system of a further data set is T24/83 cells. The data set can be described thus: T24/83 cell proliferation assay (CellTiter-Glo). Type of data set: cell-based. The note with it: Homo sapiens, 96 h, 4 days.
Description: as §1
Mutant oncogenic HRAS was originally identified in a human bladder carcinoma cell line called T24. T24/83 is a subline of T24 established more recently that has more favorable growth characteristics for in vitro assays. Thus, T24/83 is a well-characterized mutant HRAS-dependent cell line that is an ideal model for quantifying the HRAS-dependent antitumor activity of farnesyltransferase inhibitors.
T24/83 cells were inoculated into 384 well plates at 100 cells/well, and grown in the presence of inhibitor, 0.7% DMSO as a negative control, or 100 μM tipifarnib as a positive control, at 37° C. for 4 days. Cell viability was assessed using the CellTiter-Glo Kit (CTG) (Promega; Madison, WI). Luminescence was recorded using EnVision microplate reader (PerkinElmer; Waltham, MA). In this assay, tipifarmib was used as a positive control. All the assay plates passed the QC criteria (S/B, Z-factor).

The nature of data set [3]: Metabolic stability in human liver microsomes. The note with it: human liver microsomes 0.5 mg protein/mL, test compound 1 μM, 37° C.; read-out: T1/2 in HLM. It is filed as in vitro ADME. The procedure:
(§2) The metabolic stability of the compounds disclosed herein was determined by measuring half-life (T1/2) of the compounds in the presence of mouse liver microsomes (MLM) or human liver microsomes (BILM).
(§3) Intermediate solution: 5 μL of compound and control stock solution (10 mM in dimethyl sulfoxide (DMSO)) were diluted with 495 μL of acetonitrile (ACN) (intermediate solution concentration: 100 μM, 99% ACN).
(§4) Working solution: 50 μL of compound and control intermediate solution (100 μM) were diluted with 450 μL of 100 mM potassium phosphate buffer (working solution concentration: 10 μM, 9.9% ACN).
(§5) Controls used in this assay: Testosterone, Diclofenac, and Propafenone.
(§6) Preparation Procedure: The appropriate amount of NADPH powder was weighed and diluted into a 10 mM MgCl2 solution (working solution concentration: 10 unit/mL; final concentration in reaction system: 1 unit/mL).
(§7) The appropriate concentrations of microsome working solutions were prepared in 100 mM potassium phosphate buffer.
(§8) Cold (4° C.) acetonitrile (CAN) containing 200 ng/mL tolbutamide and 200 ng/mL labetalol as internal standards (IS) was used as the stop solution.
(§9) Using an Apricot automation workstation, 10 μL/well of compound working solution were added to all 96-well reaction plates except the blank (T0, T5, T10, T20, T30, T60, and NCF60).
(§10) An Apricot automation workstation was used to add 80 μL/well of microsome solution to all reaction plates (Blank, T0, T5, T10, T20, T30, T60, and NCF60).
(§11) All reaction plates containing mixtures of compound and microsomes were pre-incubated at 37° C. for 10 minutes.
(§12) An Apricot automation workstation was used to add 10 μL/well of 100 mM potassium phosphate buffer to reaction plate NCF60.
(§13) Reaction plate NCF60 was incubated at 37° C. for 60 minutes.
(§14) After pre-incubation, an Apricot automation workstation was used to add 10 μL/well of NADPH regenerating system to every reaction plate except NCF60 (Blank, T0, T5, T10, T20, T30, and T60) to start the reaction. Final concentration of each component in incubation medium: Microsome (0.5 mg protein/mL); Test Compound (1 μM); Control Compound (1 μM); Acetonitrile (0.99%); DMSO (0.01%).
(§15) The reaction plates were incubated at 37° C. for 0 minute (T0, stop solution was added prior to microsome and NADPH solutions), 5 minutes (T5), 10 minutes (T10), 20 minutes (T20), 30 minutes (T30), 60 minutes (T60).
(§16) An Apricot automation workstation was used to add 300 μL/well of stop solution to each reaction plate at its appropriate end time point to terminate the reaction.
(§17) Each plate was sealed and shaken for 10 minutes.
(§18) After shaking, each plate was centrifuged at 4000 rpm and 4° C. for 20 minutes.
(§19) During centrifugation, an Apricot automation workstation was used to add 300 µL/well of HPLC grade water to eight new 96-well plates.
(§20) After centrifugation, an Apricot automation workstation was used to transfer 100 μL of supernatant from each reaction plate to its corresponding bioanaylsis plate.
(§21) Each bioanalysis plate was sealed and shaken for 10 minutes prior to LC-MS/MS analysis.
(§22) The equation of first order kinetics was used to calculate T1/2 and CLint(mic) (μL/min/mg).
For orientation: Liver microsomes are a subcellular fraction often used to study metabolism.

Data set [4] can be described thus: Metabolic stability in mouse liver microsomes. Type of data set: in vitro ADME. The note with it: CD-1 mouse liver microsomes 0.5 mg protein/mL, test compound 1 μM, 37° C.; read-out: T1/2 in MLM. The procedure: as §2, §3, §4, §5, §6, §7, §8, §9, §10, §11, §12, §13, §14, §15, §16, §17, §18, §19, §20, §21, §22

The structures appear in SMILES notation.

As a reminder, the IC50 is the concentration that inhibits the measured activity by half. Regarding `Cn1cncc1[C@@]1(N)c2ccc(C#N)c(c2)CCc2cccc(c2)-c2cc(C#N)nc3ccc1cc23` [(R)-9, (R)-3-amino-3-(1-methyl-1H-imidazol-5-yl)-2(4,6)-quinolina-1,4(1,3)-dibenzenacyclohexaphane-2^2 4^4-dicarbonitrile], the values for the IC50 (in data set [1]; in data set [2]; in the data set with T24/83 cells) were at most 10 nM, 100 to 1000 nM and at most 50 nM, respectively.

As for `Cn1cncc1[C@@]1(O)c2ccc(Cl)c(c2)OCCc2cccc(c2)-c2cc(=O)[nH]c3ccc1cc23` [(S)-25, (S)-4^4-chloro-3-hydroxy-3-(1-methyl-1H-imidazol-5-yl)-2^1,2^2-dihydro-5-oxa-2(4,6)-quinolina-1,4(1,3)-dibenzenacycloheptaphan-2^2-one], the figures for the IC50 (in data set [1]; with T24/83 cells) were at most 10 nM and 50 to 500 nM, respectively. For the same compound, the results for the half-life at 1 μM in data set [3] and in data set [4] were below 30 min and below 5 min, respectively.

As for `[2H]C([2H])([2H])n1c(=O)cc2c3cc(ccc31)[C@@](O)(c1cncn1C)c1ccc(Cl)c(c1)OCCc1cccc-2c1` [(S)-28, (S)-4^4-chloro-3-hydroxy-2^1-(methyl-d3)-3-(1-methyl-1H-imidazol-5-yl)-2^1,2^2-dihydro-5-oxa-2(4,6)-quinolina-1,4(1,3)-dibenzenacycloheptaphan-2^2-one], the IC50 in data set [1] is at most 10 nM; in the data set on T24/83 cells, at most 50 nM. The half-life at 1 μM was below 30 min in data set [3] and below 5 min in data set [4].

Take `Cn1cncc1[C@@]1(O)c2ccc(Cl)c(c2)OCCc2cccc(c2)-c2cc(=O)n(C3CC3)c3ccc1cc23` [(S)-29, (S)-4^4-chloro-2^1-cyclopropyl-3-hydroxy-3-(1-methyl-1H-imidazol-5-yl)-2^1,2^2-dihydro-5-oxa-2(4,6)-quinolina-1,4(1,3)-dibenzenacycloheptaphan-2^2-one]: the 50% inhibitory concentration (IC50) in data set [1] was at most 10 nM; in the data set on T24/83 cells it was 50 to 500 nM. Moreover, the half-life at 1 μM in data set [3] was below 30 min; in data set [4] it was below 5 min.

As to `Cn1cncc1[C@@]1(N)c2ccc(Cl)c(c2)OCCc2cccc(c2)-c2cc(=O)n(C3CC3)c3ccc1cc23` [(S)-30, (S)-3-amino-4^4-chloro-2^1-cyclopropyl-3-(1-methyl-1H-imidazol-5-yl)-2^1,2^2-dihydro-5-oxa-2(4,6)-quinolina-1,4(1,3)-dibenzenacycloheptaphan-2^2-one], the IC50 was at most 10 nM in data set [1] and 50 to 500 nM in the data set with T24/83 cells. For the same compound, the figures for the half-life at 1 μM in data set [3] and in data set [4] were below 30 min and below 5 min, respectively.

Consider `Cn1cnnc1[C@@]1(N)c2ccc(Cl)c(c2)OCCc2cccc(c2)-c2cc(=O)n(C3CC3)c3ccc1cc23` [(S)-35, (S)-3-amino-4^4-chloro-2^1-cyclopropyl-3-(4-methyl-4H-1,2,4-triazol-3-yl)-2^1,2^2-dihydro-5-oxa-2(4,6)-quinolina-1,4(1,3)-dibenzenacycloheptaphan-2^2-one], for which the IC50 is at most 10 nM in data set [1] and 50 to 500 nM with T24/83 cells. Further, the results for the half-life at 1 μM in data set [3] and in data set [4] were below 30 min and below 5 min, respectively.

Take `Cn1cncc1[C@@]1(O)c2ccc(C#N)c(c2)OCCc2cccc(c2)-c2cc(=O)n(C)c3ccc1cc23` [(S)-36, (S)-3-hydroxy-2^1-methyl-3-(1-methyl-1H-imidazol-5-yl)-2^2-oxo-2^1,2^2-dihydro-5-oxa-2(4,6)-quinolina-1,4(1,3)-dibenzenacycloheptaphane-4^4-carbonitrile]: the values for the concentration for half-maximal inhibition (IC50) (in data set [1]; in the data set with T24/83 cells) were at most 10 nM and at most 50 nM, respectively. Besides, the results for the half-life at 1 μM in data set [3] and in data set [4] were below 30 min and 5 to 15 min, respectively.

With `Cn1cnnc1[C@@]1(N)c2ccc(C#N)c(c2)OCCc2cccc(c2)-c2cc(=O)n(C)c3ccc1cc23` [(S)-39, (S)-3-amino-2^1-methyl-3-(4-methyl-4H-1,2,4-triazol-3-yl)-2^2-oxo-2^1,2^2-dihydro-5-oxa-2(4,6)-quinolina-1,4(1,3)-dibenzenacycloheptaphane-4^4-carbonitrile], the IC50 in data set [1] is at most 10 nM; with T24/83 cells it was at most 50 nM. Besides, the values for the half-life at 1 μM in data set [3] and in data set [4] were above 100 min and above 15 min, respectively.

Regarding `Cn1cncc1C1(O)c2ccc(Cl)c(c2)COc2cccc(c2)-c2cc(=O)n(C)c3ccc1cc23` (centres unmarked) [Compound 45, 4^4-chloro-3-hydroxy-2^1-methyl-3-(1-methyl-1H-imidazol-5-yl)-2^1,2^2-dihydro-6-oxa-2(4,6)-quinolina-1,4(1,3)-dibenzenacyclohexaphan-2^2-one], the half-maximal inhibitory concentration (IC50) was at most 10 nM in data set [1] and at most 50 nM in the data set with T24/83 cells. The values for the half-life at 1 μM in data set [3] and in data set [4] were above 100 min and above 15 min, respectively.

On to `Cn1cncc1C1(O)c2ccc(Cl)c(c2)CCOc2cccc(c2)-c2cc(=O)n(C)c3ccc1cc23` (centres unmarked) [Compound 65, 4^4-chloro-3-hydroxy-2^1-methyl-3-(1-methyl-1H-imidazol-5-yl)-2^1,2^2-dihydro-7-oxa-2(4,6)-quinolina-1,4(1,3)-dibenzenacycloheptaphan-2^2-one], for which the IC50 in data set [1] was at most 10 nM; in the data set with T24/83 cells, 50 to 500 nM. The half-life at 1 μM was below 30 min in data set [3] and 5 to 15 min in data set [4].

As to `Cn1cncc1C1(O)c2ccc(C#N)c(c2)COc2cccc(c2)-c2cc(C(N)=O)nc3ccc1cc23` (centres unmarked) [Compound 73, 4^4-cyano-3-hydroxy-3-(1-methyl-1H-imidazol-5-yl)-6-oxa-2(4,6)-quinolina-1,4(1,3)-dibenzenacyclohexaphane-2^2-carboxamide], the half-maximal inhibitory concentration (IC50) was 10 to 100 nM in data set [1] and 50 to 500 nM with T24/83 cells.

The values are drawn from US12018011B2, “Macrocyclic compounds and compositions, and methods of preparing and using the same” (Kura Oncology, Inc., priority 2021, dated 2024).
